Data as given in PMC11892739, “Site-specific molecular glues for the 14-3-3/Tau pS214 protein–protein interaction via reversible covalent imine tethering” (RSC Medicinal Chemistry, 2025).

Target: T1, 14-3-3ζ/p53 peptide (Homo sapiens, UniProt P63104)
T1 construct: made in house; host or cells: NiCo21 (DE3) E. coli
Assay: FA peptide screen, 14-3-3ζ titration to client peptide and compound: p53
Format: binding
Settings: 250 μM compound, 100 nM peptide; +1 Glu
Method: Since the hub protein 14-3-3 binds to hundreds of phosphoprotein partners, selectivity of PPI stabilization is a major challenge. The interplay of chemical reactivity, and the topology and functionality of the composite binding pocket shaped by 14-3-3 and Tau potentially provide entries towards selective stabilization. […] Here, 14-3-3ζ was titrated to a constant concentration of client peptide (100 nM) and compound (250 μM) to determine the SF250μM values for the particular 14-3-3 PPI. A variety of 14-3-3 binding proteins was represented in this client panel whereby the size and hydrophobicity of the +1 amino acid were varied. […]
chromatography (HisTrap high performance cartridges, Cytiva). […] Dialyzed protein was concentrated to ∼40 mg/mL, analyzed by Q -Tof LC/MS, and aliquots were flash -frozen for storage at −80 °C. […]
0.1% (v/v) Tween20, 0.1% (w/v) BSA). […] Measurements were performed directly after plate preparation, using a Tecan SPARK plate reader at room temperature ( λex: 485±20 nm; λem: 535±25 nm; mirror: automatic; flashes: 30; settle time: 1 ms; gain: optimal; Z -position: calculated from well). […] All data were analyzed using GraphPad Prism (10.0.1) and fitted with a four -parameter logistic model (4PL) to determine binding affinities (dissociation constant, KD). […]
Fluorescence Anisotropy – peptide screen […]

T1 sequence (P63104 whole entry, other chains not shown): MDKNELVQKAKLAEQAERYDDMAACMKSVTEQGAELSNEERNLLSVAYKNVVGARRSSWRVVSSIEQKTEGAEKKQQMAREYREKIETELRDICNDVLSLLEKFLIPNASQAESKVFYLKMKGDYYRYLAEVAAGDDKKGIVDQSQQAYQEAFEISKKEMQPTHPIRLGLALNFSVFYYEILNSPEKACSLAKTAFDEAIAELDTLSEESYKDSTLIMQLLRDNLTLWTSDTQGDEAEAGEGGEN

Question: `CCc1ccc(-c2nccn2-c2ccc(C=O)c(Br)c2)cc1` [Compound 18] was tested. Which “stabilization of 14-3-3/p53 peptide (in words)” value did it give?
Answer: did not show significant stabilizing activity
